In patent publication US20190083477A1, “Cyclooxygenase Inhibitor and Calcium Channel Antagonist Compositions and Methods for Use in Urological Procedures” (Omeros Corporation, priority 2005, published 2019):
Ends that are not written are not given here.

Assays:
[1] = tested on: rat bladder smooth muscle strips; assay: tissue or blood; conditions: read-out: BK-induced Contraction IC50
[2] = tested on: bradykinin-induced PGE2 in rat bladder tissue strips; assay: PGE2 release from urinary bladder strips, enzyme immunoassay (Example I); format: cell-based; conditions: 10 min, 10 minutes of bradykinin challenge, read-out: BK-induced PGE2 IC50
[3] = tested on: rat bladder smooth muscle strips
L-type channel = conditions: cited from earlier work
L-type channel, sequence (Q13936 whole entry): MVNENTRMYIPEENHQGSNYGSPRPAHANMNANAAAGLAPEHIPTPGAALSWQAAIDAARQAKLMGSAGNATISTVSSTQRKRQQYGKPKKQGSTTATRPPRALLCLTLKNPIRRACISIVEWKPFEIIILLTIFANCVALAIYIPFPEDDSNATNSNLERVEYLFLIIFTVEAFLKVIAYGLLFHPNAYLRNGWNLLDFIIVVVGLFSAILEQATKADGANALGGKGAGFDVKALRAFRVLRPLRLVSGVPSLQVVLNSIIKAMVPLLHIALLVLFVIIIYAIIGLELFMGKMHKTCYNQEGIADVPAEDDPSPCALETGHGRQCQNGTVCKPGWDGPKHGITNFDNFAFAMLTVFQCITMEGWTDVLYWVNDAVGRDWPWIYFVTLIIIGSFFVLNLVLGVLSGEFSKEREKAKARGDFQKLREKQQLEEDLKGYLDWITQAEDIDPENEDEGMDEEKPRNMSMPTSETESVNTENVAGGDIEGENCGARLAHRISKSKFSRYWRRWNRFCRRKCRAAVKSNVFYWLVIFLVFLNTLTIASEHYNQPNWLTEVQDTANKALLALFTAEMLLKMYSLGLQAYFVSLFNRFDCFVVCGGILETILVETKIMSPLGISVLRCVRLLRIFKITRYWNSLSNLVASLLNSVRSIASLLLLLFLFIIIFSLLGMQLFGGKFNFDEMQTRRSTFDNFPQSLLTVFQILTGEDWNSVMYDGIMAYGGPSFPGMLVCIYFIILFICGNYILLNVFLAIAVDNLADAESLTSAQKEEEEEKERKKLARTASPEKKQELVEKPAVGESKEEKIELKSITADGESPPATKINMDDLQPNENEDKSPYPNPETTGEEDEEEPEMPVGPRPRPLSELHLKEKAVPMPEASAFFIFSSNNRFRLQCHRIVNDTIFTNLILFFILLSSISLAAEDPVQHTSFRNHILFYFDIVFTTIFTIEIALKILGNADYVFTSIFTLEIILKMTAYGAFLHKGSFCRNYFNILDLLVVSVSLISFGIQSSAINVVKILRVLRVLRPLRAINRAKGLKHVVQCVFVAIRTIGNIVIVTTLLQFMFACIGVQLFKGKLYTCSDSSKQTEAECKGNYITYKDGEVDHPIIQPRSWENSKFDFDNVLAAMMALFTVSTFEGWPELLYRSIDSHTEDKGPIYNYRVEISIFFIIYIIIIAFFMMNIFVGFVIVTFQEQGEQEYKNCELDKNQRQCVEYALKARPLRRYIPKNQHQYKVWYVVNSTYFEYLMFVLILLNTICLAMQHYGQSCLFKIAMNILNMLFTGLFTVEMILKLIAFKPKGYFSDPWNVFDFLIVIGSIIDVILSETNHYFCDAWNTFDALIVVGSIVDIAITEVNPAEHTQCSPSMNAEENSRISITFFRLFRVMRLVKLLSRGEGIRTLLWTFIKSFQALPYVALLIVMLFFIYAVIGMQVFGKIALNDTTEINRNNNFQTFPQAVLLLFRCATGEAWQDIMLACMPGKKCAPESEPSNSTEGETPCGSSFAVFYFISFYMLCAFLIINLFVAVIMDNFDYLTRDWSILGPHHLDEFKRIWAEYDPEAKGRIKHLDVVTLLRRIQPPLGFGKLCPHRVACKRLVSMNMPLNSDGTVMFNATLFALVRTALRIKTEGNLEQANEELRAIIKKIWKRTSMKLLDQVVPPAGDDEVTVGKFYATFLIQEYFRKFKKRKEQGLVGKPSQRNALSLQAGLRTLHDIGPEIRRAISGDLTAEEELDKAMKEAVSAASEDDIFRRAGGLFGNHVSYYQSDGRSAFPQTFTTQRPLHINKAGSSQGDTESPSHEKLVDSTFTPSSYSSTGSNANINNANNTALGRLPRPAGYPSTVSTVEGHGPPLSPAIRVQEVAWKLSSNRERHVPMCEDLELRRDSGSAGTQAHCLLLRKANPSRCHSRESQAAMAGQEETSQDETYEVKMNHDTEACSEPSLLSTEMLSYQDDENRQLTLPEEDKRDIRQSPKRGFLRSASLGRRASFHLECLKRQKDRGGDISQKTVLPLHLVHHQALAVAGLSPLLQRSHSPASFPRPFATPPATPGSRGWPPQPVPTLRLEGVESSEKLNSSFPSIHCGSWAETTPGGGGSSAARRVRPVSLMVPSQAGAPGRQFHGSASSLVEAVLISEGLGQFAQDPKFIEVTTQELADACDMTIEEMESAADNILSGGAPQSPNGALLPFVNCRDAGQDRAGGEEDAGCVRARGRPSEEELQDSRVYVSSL

rat bladder = assay: Acetic-acid overactive bladder model, intravesical delivery, cystometry (Example V); format: in vivo
Protocol: In this model, acute inflammation of the bladder is produced by using 0.2% acetic acid in saline as the bladder perfusion fluid and cystometry under anesthesia is performed after a recovery period from the surgical procedure.
The animals were anesthesized and bladder catheters were surgically implanted to allow irrigation of the test agents. The following cystometry parameters were monitored: intercontraction interval (ICI), trigger pressure (TP), micturition pressure (MP) and micturition volume (MV) using a Med Associates Cystometry Station and software program. […] Following the saline period, the rat bladder was infused with test agent in saline containing 0.2% acetic acid for 20 min followed by the collection of 7 representative ICI intervals for analysis.
Five to seven animals were normally tested in each group. Acidified saline served as the control. All infusion solutions were prepared fresh on the day of the experiment before use.

rat urinary bladder = assay: In vivo rat cystometry model, 0.2% acetic acid infusion (Example I); conditions: 10 mg/kg intravenous
Protocol: The rats were anesthetized with urethane at 1.2 g/kg i.p. in 5 ml/kg. A polyethylene catheter (PE50) was implanted into the bladder for saline or acetic acid infusion through a 3-way stopcock. A pressure transducer was connected for measurements of intravesical pressure. Warm (37° C.) saline was infused into the bladder at a constant rate of […] (1 ml/hour) until cystometry became stable (no less than 60 minutes). Thereafter, 0.2% acetic acid was infused into the urinary bladder. Aspirin (10 mg/kg i.v.) and vehicle were administered intravenously via a PE-10 catheter in the femoral vein at 5 minutes after infusion of acetic acid was started and at the end of first micturition cycle. Dunnett's test was applied for comparison between the time before and after test substance or vehicle treatment. To ascertain differences between the test substance and the vehicle control group, an unpaired Student's t test was used. Differences are considered significant at […].

[4] = tested on: bradykinin-stimulated PGE2 release from rat bladder tissue strips; assay: tissue or blood; conditions: read-out: inhibition of bradykinin-evoked PGE2 release
[5] = tested on: rat bladder tissue strips; assay: tissue or blood; conditions: read-out: inhibition of contractile response to bradykinin
COX = conditions: read-out: IC50 in a non-selective COX assay; cited from earlier work
[6] = in irrigation buffer, 0.2% acetic acid, female rats

## CC(C(=O)O)c1ccc(-c2ccccc2)c(F)c1 (stereo not shown) [Flurbiprofen]
[1]
  IC50: 24.8 µM
[2]
  IC50: 1.65 µM

## RPPGFSPFR [bradykinin]
[3]; read-out: EC50, cumulative concentration-response curve (contraction), agonist on bladder strips of normal animals
  EC50: 0.0085 µM

## CS(=O)(=O)c1ccc(-n2nc(C(F)(F)F)cc2-c2ccc(F)cc2)cc1 [SC-58125, 1-[(4-methysufonyl)phenyl]-3-tri-fluoromethyl-5-(4-fluorophenyl)pyrazole]
[1]
  IC50: > 25 µM
[2]
  IC50: > 25 µM

## CS(=O)(=O)c1ccc(-c2cc(Br)sc2-c2ccc(F)cc2)cc1 [DUP-697, 5-bromo-2-(4-fluorophenyl)-3-(4-methylsulfonyl) thiophene]
[1]
  IC50: > 25 µM
[2]
  IC50: > 25 µM

## COC(=O)C1=C(C)NC(C)=C(C(=O)OC)C1c1ccccc1[N+](=O)[O-] [Nifedipine, 1,4-dihydro-2,6-dimethyl-4-(2-nitrophenyl)-3,5-pyridinedicarboxylic acid dimethyl ester]
L-type channel
  onset of action: less than 10 minutes
Rat bladder; [6]
  concentration of maximal effects on the shortening of the ICI: 1 µM
Rat bladder; nifedipine above 1 μM in irrigation buffer
  ICI plateau at higher concentrations: approximately 75 % of baseline
[3]; single agent, 10 min incubation
  type of antagonism upon bradykinin-induced contractile responses: noncompetitive

## CC(=O)Oc1ccccc1C(=O)O [aspirin]
Rat urinary bladder
  Threshold pressure: not affected
  bladder capacity: parallel changes
  inhibition of the acetic acid induced reduction in the intercontraction interval (ICI): gradual time-dependent inhibition
  micturition pressure: not affected

## CC(C(=O)O)c1cccc(C(=O)c2ccccc2)c1 (stereo not drawn) [Ketoprofen, 3-benzoyl-α-methylbenzeneacetic acid]
[4]
  inhibition at 10 µM: 81%
[5]
  inhibition at 10 µM: 67%
Rat bladder; [6]
  concentration giving complete inhibition of the shortening of the ICI: approximately 3 μM
COX
  IC50: 0.004 to 0.008 µM
